Experiments:
[1] = Solubility in water (vessel cleaning note); assay type: physicochemical; conditions: Stage 3 vessel cleaning information
[2] = hashed area of FIG. 2; cited from earlier work
humans = conditions: 0.05 mg/kg to 0.4 mg/kg; bolus injections or prolonged infusions; only mild to moderate adverse effects; cited from earlier work
[3] = tested on: individuals who have ingested 5-MeO-DMT; conditions: cited from earlier work
[4] = cited from earlier work
[5] = self-report, uncontrolled setting, Davis et al. 2018

CN(C)CCc1c[nH]c2ccccc12.O=C(O)/C=C/C(=O)O [API, N,N-DMT fumarate]
Solubility in water [1]: API highly soluble

CN(C)CCc1c[nH]c2ccccc12 [DMT, N, N-dimethyltryptamine]
Effect site concentrations experienced as full dissociation from the external world [2]: > 60 ng/mL
Tolerability (humans): well-tolerated

COc1ccc2[nH]cc(CCN(C)C)c2c1 [Mixture 5-MeO-DMT, 5-methoxy-N, N-dimethyltryptamine]
Individuals with alcoholism or hazardous drinking reporting improvements ([3]; n=75 out of 113): 66%
Participants indicating symptoms improved: anxiety [3, 5]: 69%
Participants indicating symptoms improved: depression [3, 5]: 77%
Participants indicating symptoms improved: post-traumatic stress disorder [3, 5]: 79%
Half-life ([4]; rapidly metabolized, H-W. Shen et al. 2010): 12 to 19 min
Oral bioavailability ([4]; without coadministration alongside a monoamine oxidase inhibitor): not orally bioavailable

Reference: US12649718B2, “Synthesis of n,n-dimethyltryptamine-type compounds, methods, and uses preliminary class 548” (CYBIN UK LTD, priority 2019, dated 2026)
